Assays:
[1] = test system: synthesis of LTB4 in human whole blood; experiment: Human whole blood assay (calcimycin-stimulated LTB4 synthesis); type: cell-based; settings: Homo sapiens; read-out: Human Whole Blood LTB4 Assay for FLAP (IC50 nM)
Outline: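 Whole-blood cellular format, heparinized human donors: 15 min compound pretreatment, then 30 min calcimycin stimulation (20 μM final), both at 37° C. Low-speed centrifugation yields plasma, in which LTB4 is read by homogeneous time-resolved fluorescence immunoassay.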

[2] = molecular target: T1, recombinant human FLAP protein (Homo sapiens, UniProt P20292); experiment: FLAP binding assay (Scintillation Proximity Assay, displacement of [125I]L-691,831); settings: read-out: Human FLAP SPA Binding (IC50 nM)
T1 construct: made in house; host or cells: Sf9 insect cells (membrane fraction, 100,000 x g pellet)
T1 sequence (P20292 1-161): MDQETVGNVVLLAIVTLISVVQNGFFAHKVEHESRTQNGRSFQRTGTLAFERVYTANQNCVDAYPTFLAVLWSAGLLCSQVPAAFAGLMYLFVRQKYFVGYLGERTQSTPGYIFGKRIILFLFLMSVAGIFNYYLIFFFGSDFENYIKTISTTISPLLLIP
Outline: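 Scintillation proximity displacement format: 0.08 nM iodinated MK-591 analog [125I]L-691,831 competes with test compound for human FLAP in sf9 insect-cell membranes (5 μg/well, WGA beads), 2 h with shaking, pH 7.5 Tris buffer. 10 μM cold L-691,831 defines non-specific binding.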

| Structure (SMILES) | IC50 [1] | IC50 [2] |
| --- | --- | --- |
| Nc1ncc(-c2ccc(C3(c4nc5ncccc5[nH]4)CCC3)cc2)cn1 [Example 125, 5-{4-[1-(1H-imidazo[4,5-b]pyridin-2-yl)cyclobutyl]phenyl}pyrimidin-2-amine] | 3400 nM | 250 nM |
| Cc1ccc(-c2coc(C3(c4ccc(-c5cnc(N)nc5)cc4)CCC3)n2)cn1 [Example 8, 5-(4-{1-[4-(6-methylpyridin-3-yl)-1,3-oxazol-2-yl]cyclobutyl}phenyl)pyrimidin-2-amine] | 410 nM | 2.8 nM |
| Cn1cc(C(c2ccc(-c3cnc(N)nc3)cn2)C(C)(C)C)c2ccccc21 (stereo not shown) [Example 156, 5-{6-[2,2-dimethyl-1-(1-methyl-1H-indol-3-yl)propyl]pyridin-3-yl}pyrimidin-2-amine] | > 5000 nM | 260 nM |
| COc1cccc2c(C(C)(c3ccc(-c4cnc(N)nc4)cc3)C(C)C)c[nH]c12 (stereo not shown) [Example 45, 5-{4-[2-(7-methoxy-1H-indol-3-yl)-3-methylbutan-2-yl]phenyl}pyrimidin-2-amine] | 260 nM | 1.4 nM |
| Cc1ccc(-c2cnc(C3(c4ccc(-c5cnc(N)nc5)cc4)CCC3)[nH]2)cn1 [Example 14, 5-(4-{1-[5-(6-methylpyridin-3-yl)-1H-imidazol-2-yl]cyclobutyl}phenyl)pyrimidin-2-amine] | > 5000 nM | 30 nM |
| CC(C)C(C)(c1ccc(-c2cnc(N)nc2)cc1)c1c[nH]c2cc(C(=O)N3CCC(O)C3)ccc12 (stereo not shown) [Example 80, (3-{2-[4-(2-aminopyrimidin-5-yl)phenyl]-3-methylbutan-2-yl}-1H-indol-6-yl)(3-hydroxypyrrolidin-1-yl)methanone] | > 5000 nM | 1.6 nM |
| Nc1ncc(-c2ccc(C3(c4c[nH]c5ccc(F)cc45)CCC3)cc2)cn1 [Example 83, 5-{4-[1-(5-fluoro-1H-indol-3-yl)cyclobutyl]phenyl}pyrimidin-2-amine] | 460 nM | 5 nM |
| CC(C)C(C)(c1ccc(-c2cnc(N)nc2)cc1)c1cn(Cc2ccc(Cl)cc2)c2ccccc12 (stereo not shown) [Example 29, 5-(4-{2-[1-(4-chlorobenzyl)-1H-indol-3-yl]-3-methylbutan-2-yl}phenyl)pyrimidin-2-amine] | 2700 nM | 5.1 nM |
| COCCN(C)C(=O)c1cccc2c(C3(c4ccc(-c5cnc(N)nc5)cc4)CCC3)c[nH]c12 [Example 116, 3-{1-[4-(2-aminopyrimidin-5-yl)phenyl]cyclobutyl}-N-(2-methoxyethyl)-N-methyl-1H-indole-7-carboxamide] | 270 nM | 2.5 nM |
| Nc1ncc(-c2ccc(C3(c4nnc(-c5cccnc5)o4)CCC3)cc2)cn1 [Example 94, 5-(4-{1-[5-(pyridin-3-yl)-1,3,4-oxadiazol-2-yl]cyclobutyl}phenyl)pyrimidin-2-amine] | 2800 nM | 120 nM |
| Cn1cc(C(c2ccc(-c3cnc(N)nc3)cc2)C(C)(C)C)c2ccccc21 (stereo not shown) [Example 154, 5-{4-[2,2-dimethyl-1-(1-methyl-1H-indol-3-yl)propyl]phenyl}pyrimidin-2-amine] | > 5000 nM | 22 nM |
| CC(C)C(C)(c1ccc(OCc2ccccn2)cc1)c1cn(C)c2cc(C(=O)O)ccc12 (stereo not shown) [Example 36, 23-[1,2-dimethyl-1-[4-(2-pyridylmethoxy)phenyl]propyl]-1-methyl-indole-6-carboxylic acid] | 1900 nM | 1.8 nM |
| CC(C)C(C)(c1ccc(-c2ccc(N)nc2)cc1)c1c[nH]c2ccccc12 (stereo not shown) [Example 66, 5-{4-[2-(1H-indol-3-yl)-3-methylbutan-2-yl]phenyl}pyridin-2-amine] | 170 nM | 1.2 nM |
| CC(C)C(C)(c1ccc(-c2cnc(N)nc2)cc1)c1c[nH]c2cc(F)ccc12 (stereo not shown) [Example 60, 5-{4-[2-(6-fluoro-1H-indol-3-yl)-3-methylbutan-2-yl]phenyl}pyrimidin-2-amine] | 170 nM | 0.86 nM |
| CC(C)C(C)(c1ccc(-c2ccc(N)nc2)cc1)c1c[nH]c2cc(-c3nnc(N)o3)ccc12 (stereo not shown) [Example 71, 5-(4-{2-[6-(5-amino-1,3,4-oxadiazol-2-yl)-1H-indol-3-yl]-3-methylbutan-2-yl}phenyl)pyridin-2-amine] | 1900 nM | 0.72 nM |
| CNC(=O)c1cccc2c(C3(c4ccc(-c5cnc(N)nc5)cc4)CCC3)c[nH]c12 [Example 6, 3-[1-[4-(2-aminopyrimidin-5-yl)phenyl]cyclobutyl]-N-methyl-1H-indole-7-carboxamide] | 29 nM | 1.5 nM |
| Cn1nc(C(c2ccc(-c3cnc(N)nc3)cc2)C(C)(C)C)c2ccccc21 (stereo not shown) [Example 44, 5-[4-[2,2-dimethyl-1-(1-methylindazol-3-yl)propyl]phenyl]pyrimidin-2-amine] | > 5000 nM | 21 nM |
| CC(C)C(C)(c1ccc(-c2cnc(N)nc2)cc1)c1cn(CC(=O)O)c2ncccc12 (stereo not shown) [Example 47, (3-{2-[4-(2-aminopyrimidin-5-yl)phenyl]-3-methylbutan-2-yl}-1H-pyrrolo[2,3-b]pyridin-1-yl)acetic acid] | > 5000 nM | 4.6 nM |
| Cc1cc(CN(C)C(=O)c2cccc3c(C4(c5ccc(-c6cnc(N)nc6)cc5)CCC4)c[nH]c23)[nH]n1 [Example 13, 3-{1-[4-(2-aminopyrimidin-5-yl)phenyl]cyclobutyl}-N-methyl-N-[(3-methyl-1H-pyrazol-5-yl)methyl]-1H-indole-7-carboxamide] | 320 nM | 1.4 nM |
| CC(C)C(C)(c1ccc(-c2cnc(N)nc2)cc1)c1cn(C)c2ccccc12 (stereo not shown) [Example 32, 5-{4-[3-methyl-2-(1-methyl-1H-indol-3-yl)butan-2-yl]phenyl}pyrimidin-2-amine] | 650 nM | 3.3 nM |
| Nc1ncc(-c2ccc(C3(c4c[nH]c5cnccc45)CCC3)cc2)cn1 [Example 109, 5-{4-[1-(1H-pyrrolo[2,3-c]pyridin-3-yl)cyclobutyl]phenyl}pyrimidin-2-amine] | 71 nM | 1.3 nM |

Continued, values first:

| IC50 [1] | IC50 [2] | Structure (SMILES) |
| --- | --- | --- |
| 93 nM | 5.3 nM | CN(C)C(=O)Cn1cc(-c2cc([C@@](C)(c3ccc(-c4cnc(N)nc4)cc3)C3CC3)no2)cn1 [Example 197, 2-[4-(3-{(1R)-1-[4-(2-aminopyrimidin-5-yl)phenyl]-1-cyclopropylethyl}-1,2-oxazol-5-yl)-1H-pyrazol-1-yl]-N,N-dimethylacetamide] |
| 2000 nM | 380 nM | CN(C)C(=O)Cn1cc(-c2coc([C@](C)(c3ccc(-c4cnc(N)nc4)cc3)C3CC3)n2)cn1 [Example 196, 2-[4-(2-{(1S)-1-[4-(2-aminopyrimidin-5-yl)phenyl]-1-cyclopropylethyl}-1,3-oxazol-4-yl)-1H-pyrazol-1-yl]-N,N-dimethylacetamide] |
| 1900 nM | 210 nM | CC(C)[C@@](C)(c1ccc(-c2cnc(N)nc2)nc1)c1cc(-c2cnn(C)c2)on1 [Example 192, 5-(5-{(2S)-3-methyl-2-[5-(1-methyl-1H-pyrazol-4-yl)-1,2-oxazol-3-yl]butan-2-yl}pyridin-2-yl)pyrimidin-2-amine] |
| 1500 nM | 560 nM | CC(C)(O)Cn1cc(-c2coc([C@](C)(c3ccc(-c4cnc(N)nc4)cc3)C3CC3)n2)cn1 [Example 204, 1-[4-(2-{(S)-1-[4-(2-Amino-pyrimidin-5-yl)-phenyl]-1-cyclopropyl-ethyl}-oxazol-4-yl)-pyrazol-1-yl]-2-methyl-propan-2-ol] |
| 230 nM | 69 nM | CC(C)(O)Cn1cc(-c2coc(C(C)(c3ccc(-c4cnc(N)nc4)cc3)C3CC3)n2)cn1 (stereo not shown) [Example 202, 1-[4-(2-{1-[4-(2-Amino-pyrimidin-5-yl)-phenyl]-1-cyclopropyl-ethyl}-oxazol-4-yl)-pyrazol-1-yl]-2-methyl-propan-2-ol] |
| 73 nM | 8.2 nM | CN(C)CCn1cc(-c2cnc(C(C)(c3ccc(-c4cnc(N)nc4)cc3)C3CC3)s2)cn1 (stereo not shown) [Example 172, 5-{4-[1-cyclopropyl-1-(5-{1-[2-(dimethylamino)ethyl]-1H-pyrazol-4-yl}-1,3-thiazol-2-yl)ethyl]phenyl}pyrimidin-2-amine] |
| 54 nM | 3.3 nM | Cn1cc(-c2coc([C@@](C)(c3ccc(-c4cnc(N)nc4)cc3)C3CC3)n2)cn1 [Example 185, 5-[4-[(1R)-1-cyclopropyl-1-[4-(1-methylpyrazol-4-yl)oxazol-2-yl]ethyl]phenyl]pyrimidin-2-amine] |
| 160 nM | 8.2 nM | CC(C)C(C)(c1ccc(-c2cnc(N)nc2)nc1)c1cc(-c2cnn(C)c2)on1 (stereo not shown) [Example 161, 5-(5-{3-methyl-2-[5-(1-methyl-1H-pyrazol-4-yl)-1,2-oxazol-3-yl]butan-2-yl}pyridin-2-yl)pyrimidin-2-amine] |
| 450 nM | 140 nM | Cn1cc(-c2cc([C@@](C)(c3ccc(-c4cnc(N)nc4)nc3)C3CC3)no2)cn1 [Example 200] |
| 110 nM | 6.1 nM | CN(C)CCn1cc(-c2cnc(C3(c4ccc(-c5cnc(N)nc5)cc4)CCC3)s2)cn1 [Example 181, 5-{4-[1-(5-{1-[2-(dimethylamino)ethyl]-1H-pyrazol-4-yl}-1,3-thiazol-2-yl)cyclobutyl]phenyl}pyrimidin-2-amine] |
| 97 nM | 8.4 nM | CC(C)(O)Cn1cc(-c2cc(C(C)(c3ccc(-c4cnc(N)nc4)cc3)C3CC3)no2)cn1 (stereo not shown) [Example 184, 1-[4-(3-{1-[4-(2-aminopyrimidin-5-yl)phenyl]-1-cyclopropylethyl}-1,2-oxazol-5-yl)-1H-pyrazol-1-yl]-2-methylpropan-2-ol] |
